The text below walks through data of publication PMC3476531, “Synergy of Peptide and Sugar in O-GlcNAcase Substrate Recognition” (Chemistry & Biology, 2012).

The assay deals with CpOGA (Clostridium perfringens, UniProt Q0TR53). As to conditions: read-out: Michaelis constant (KM) of glycopeptide substrate for CpOGA; pH 7.4.
As for “PVSVPYS(O-GlcNAc)SAQSTS [TAB1 (Ser395) 13]”, the Km was determined as 36 ± 1 µM.

On to VAHS(O-GlcNAc)GAK [hOGA (Ser405) 7], for which the Km came out at 40 ± 10 µM.

“p53 (Ser149) 11: 11-residue O-GlcNAc glycopeptide derived from p53 Ser149 site”: the Km came to 2.9 ± 0.4 µM.
